In series [1] the test system is Vero. The series can be described thus: Cytotoxicity against African green monkey Vero cells after 72 hrs by MTT assay. The note with it: Chlorocebus sabaeus. It counts as ADME, cell-based.
For series [2], the system named is A549. The series can be described thus: Cytotoxicity against human A549 cells after 72 hrs by MTT assay. The conditions noted are these: A549, 72 h. Format: functional, cell-based.
Series [3] can be described thus: Selectivity index, ratio of IC50 for African green monkey Vero cells to IC50 for human A549 cells. Format: functional.
For series [4], the system named is MCF7. The series can be described thus: Cytotoxicity against human MCF7 cells at 10 uM after 72 hrs by resazurin based fluorescence assay. Format: functional.
Series [5] in a line: Solubility of the compound in PBS at pH 7.4 by HPLC-UV analysis. Format: physicochemical.
In series [6] the test system is NCI-H187. The series can be described thus: Cytotoxicity against human NCI-H187 cells at 10 uM after 72 hrs by resazurin based fluorescence assay. Format: functional.
Series [7] concerns KB. Description: Cytotoxicity against human KB cells at 10 uM after 72 hrs by resazurin based fluorescence assay relative to control. It counts as functional.
Series [8] deals with MCF7. The series can be described thus: cells. The conditions noted are these: Homo sapiens, MCF7, 72 h.
Description: Cytotoxicity against human MCF7 cells after 72 hrs by resazurin based fluorescence assay
Series [9] concerns NCI-H187. Description: Cytotoxicity against human NCI-H187 cells after 72 hrs by resazurin based fluorescence assay. It counts as functional, cell-based. The note with it: NCI-H187, 72 h.
Series [10] can be described thus: 1-octanol/water partition co-efficient, log D of the compound in PBS at pH 7.4 after 6 hrs by HPLC-UV based shake-flask method. Format: physicochemical. The note with it: 1-octanol/PBS.
Series [11] deals with KB. The series can be described thus: Cytotoxicity against human KB cells after 72 hrs by resazurin based fluorescence assay. Format: functional, cell-based.
Series [12] deals with Cyclin-dependent kinase 5 (Homo sapiens, UniProt Q00535). Description: Inhibition of human CDK5.
For series [13], the system named is KB. Description: Cytotoxicity against human KB cells at 10 ug/ml after 72 hrs by resazurin based fluorescence assay relative to control. Format: functional.
In series [14] the test system is NCI-H187. Description: Cytotoxicity against human NCI-H187 cells at 10 ug/ml after 72 hrs by resazurin based fluorescence assay. It counts as functional.

23 compounds from ChEMBL document CHEMBL4043240, “Synthesis and evaluation of the NSCLC anti-cancer activity and physical properties of 4-aryl-N-phenylpyrimidin-2-amines” (Bioorg Med Chem Lett, 2017) can be followed below.

Converted amounts (≈) assume the structure as drawn.

Cyclin-dependent kinase 5, sequence (Q00535 whole entry): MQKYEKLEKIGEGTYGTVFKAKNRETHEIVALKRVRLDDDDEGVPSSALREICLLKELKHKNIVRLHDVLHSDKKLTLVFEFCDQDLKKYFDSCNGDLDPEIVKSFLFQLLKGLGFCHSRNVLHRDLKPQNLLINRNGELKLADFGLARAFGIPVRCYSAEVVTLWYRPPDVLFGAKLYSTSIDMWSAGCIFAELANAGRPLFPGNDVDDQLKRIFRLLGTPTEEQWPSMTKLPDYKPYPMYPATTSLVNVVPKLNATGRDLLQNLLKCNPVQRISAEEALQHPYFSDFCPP

For the compound `COc1ccc(-c2ccnc(Nc3ccc(S(N)(=O)=O)cc3)n2)cc1`, the IC50 in series [1] is 2.4 µM; in series [2], 4.4 µM. In addition, the “Ratio IC50” value in series [3] was found to be 0.
Regarding `COc1ccc(-c2ccnc(Nc3cccc(S(N)(=O)=O)c3)n2)cc1`, the IC50 in [1] is 1.1 µM; in [2], 1.6 µM; in [8], 5.95 µM; in series [9] it was 2.08 µM; in series [11], 1.29 µM. The Activity in series [4] is 63.3%; in series [6], 82.3%; in series [7], 76.3%. In addition, the solubility in series [5] was found to be 38.4 µM (≈ 13.7 µg/mL). This compound also yielded a logD at 6 h in [10] of 2.7. For the same compound, in series [3], the “Ratio IC50” value is 0.
On to `COc1ccc(-c2ccnc(Nc3cccc(NS(C)(=O)=O)c3)n2)cc1`, for which the IC50 in series [1] amounted to 0.9 µM; in series [2] it was 0.2 µM; in [9] it was 5.35 µM. Also, the Activity in series [4] is 41%; in series [6] it was 84.8%; in series [7], 43.7%. Moreover, the solubility in series [5] is less than 0.5 µM. For the same compound, the logD at 6 h in series [10] is 3.2. For the same compound, the “Ratio IC50” value in series [3] is 4.5.
Consider `Cc1csc(-c2ccnc(Nc3ccc(C(N)=O)cc3)n2)c1`, for which the IC50 in series [1] came to 6.2 µM; in series [2], 30 µM. Further, the “Ratio IC50” value in series [3] was determined as 0.
In the case of `CS(=O)(=O)c1ccc(-c2ccnc(Nc3cccc(C(N)=O)c3)n2)cc1`, the half-maximal inhibitory concentration (IC50) is 37.9 µM in series [1] and greater than 100 µM in series [2]. Also, the “Ratio IC50” value in series [3] is 0.
On the same counts, the results for `COc1ccc(-c2ccnc(Nc3ccc4nc[nH]c4c3)n2)cc1` are 14.8 µM, 13.9 µM and 1.1.
On to `CC(=O)Nc1ccc(-c2ccnc(Nc3cccc(C(N)=O)c3)n2)cc1`, for which the IC50 in [1] is greater than 100 µM; in series [2], 33 µM. For the same compound, the “Ratio IC50” value in series [3] was greater than 3.
`COc1ccc(-c2ccnc(Nc3ccc(C(=O)O)cc3)n2)cc1`: the IC50 was greater than 100 µM in series [1] and 20.3 µM in series [2]. Moreover, the Activity in series [4] is recorded as 0%; in [6], 23.5%; in series [7], 0%. This compound registered a solubility in [5] of 12.1 µM (≈ 3.89 µg/mL). Further, in [10], the logD at 6 h was determined as 1.2. Moreover, in series [3], the “Ratio IC50” value is recorded as greater than 4.9.
Consider `CC(=O)Nc1ccc(-c2ccnc(Nc3cccc(S(N)(=O)=O)c3)n2)cc1`, for which the IC50 is 8.7 µM in series [1] and 6.6 µM in series [2]. Further, the “Ratio IC50” value in series [3] was found to be 1.3.
On to `COc1ccc(-c2ccnc(Nc3cccc(C(N)=O)c3)n2)cc1`, for which the IC50 in series [1] turned out to be 2.7 µM; in series [2], 6.7 µM. In addition, the results for the Activity in [4], in series [6] and in series [7] were 0%, 18.6% and 0%, respectively. In addition, the concentration in solution in series [5] (solubility) was 4.1 µM (≈ 1.31 µg/mL). Moreover, the logD at 6 h in series [10] worked out at 3.1. Besides, the “Ratio IC50” value in [3] is given as 0.
As to `Cc1csc(-c2ccnc(Nc3cc([N+](=O)[O-])ccc3O)n2)c1`, the IC50 in series [1] and in series [2] was greater than 100 µM throughout. Moreover, in series [3], the “Ratio IC50” value worked out at 0.
Take `COC(=O)c1ccc(Nc2nccc(-c3ccc(OC)cc3)n2)cc1`: the IC50 came out at 4.5 µM in series [1] and 6 µM in [2]. Further, the Activity was 0% in [4], 23.8% in series [6] and 0% in [7]. Moreover, the solubility in series [5] was 6.9 µM (≈ 2.31 µg/mL). This compound registered a logD at 6 h in [10] of 2.9. The “Ratio IC50” value in [3] is 0.
With `Cc1csc(-c2ccnc(Nc3ccc(C(=O)O)cc3)n2)c1`, the IC50 in [1] is 80.8 µM; in series [2], 18.2 µM. Besides, the “Ratio IC50” value in series [3] amounted to 4.4.
Regarding `COc1cccc(-c2ccnc(Nc3cccc(S(N)(=O)=O)c3)n2)c1`, the IC50 came out at 1.1 µM in [1]; 2.6 µM in [2]; 1.5 µM in [8]; 1.34 µM in series [9]; 3.56 µM in series [11]. Also, the figures for the Activity in series [4], in [6] and in series [7] were 63.8%, 96.6% and 94.9%, respectively. The compound further displayed a solubility in [5] of less than 0.6 µM. The compound also showed a logD at 6 h in [10] of 3. The “Ratio IC50” value in [3] came out at 0.
With `COc1ccc(-c2ccnc(Nc3cccc(N)c3)n2)cc1`, the IC50 in series [12] worked out at 81 µM.
On to `NS(=O)(=O)c1cccc(Nc2nccc(-c3ccccc3)n2)c1`, for which the half-maximal inhibitory concentration (IC50) turned out to be 0.8 µM in series [1], 0.2 µM in series [2], 1.18 µM in [9] and 2.44 µM in series [11]. The figures for the Activity in series [4], in series [6] and in series [7] were 0%, 99.8% and 93.6%, respectively. The solubility in series [5] was determined as 3.4 µM (≈ 1.11 µg/mL). For the same compound, the logD at 6 h in [10] was 2.9. The “Ratio IC50” value in [3] is reported as 4.
As to `CS(=O)(=O)c1ccc(-c2ccnc(Nc3cccc(S(N)(=O)=O)c3)n2)cc1`, the IC50 in [1] and in series [2] was greater than 100 µM throughout. Besides, in [3], the “Ratio IC50” value was found to be 0.
Consider `COc1ccc(-c2ccnc(Nc3ccc(C(N)=O)cc3)n2)cc1`, for which the values for the IC50 in series [1] and in series [2] were 5.4 µM and 5.3 µM, respectively. For the same compound, the figures for the Activity in [4], in series [6] and in [7] were 1.9%, 28.1% and 0%, respectively. The solubility in [5] is less than 0.6 µM. In [10], the logD at 6 h was 2.8. For the same compound, the “Ratio IC50” value in [3] was determined as 0.
For `Cc1csc(-c2ccnc(Nc3cccc(C(N)=O)c3)n2)c1`, the IC50 in series [1] and in [2] was greater than 100 µM throughout. Moreover, the “Ratio IC50” value in [3] turned out to be 0.
On to `COc1ccc(-c2ccnc(Nc3ccc4cn[nH]c4c3)n2)cc1`, for which the values for the IC50 in series [1] and in series [2] were 7.9 µM and 65.1 µM, respectively. Further, in [3], the “Ratio IC50” value amounted to 0.
With `COc1cccc2c1C(=O)c1c(O)c3c(c(O)c1C2=O)C[C@@](O)(C(=O)CO)C[C@@H]3O[C@H]1C[C@H](N)[C@H](O)[C@H](C)O1` [DOXORUBICIN], the IC50 in [1] is 1.4 µM; in series [2], 0.4 µM; in series [9] it was 0.06 µM; in series [11] it was 1.35 µM. Also, the Activity amounted to 99.7% in series [13] and 96.98% in series [14].
As for `Cc1c2ccncc2c(C)c2c1[nH]c1ccccc12` [ELLIPTECINE], the Activity amounted to 96.3% in series [13] and 99.24% in [14]. The IC50 turned out to be 0.95 µM in series [9] and 2.81 µM in [11].
`CC/C(=C(\c1ccccc1)c1ccc(OCCN(C)C)cc1)c1ccccc1` [TAMOXIFEN] registered an IC50 in series [8] of 7.94 µM.
